The values that follow come from PubChem BioAssay (NCI).

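How tested: cells in 96-well plates exposed to compound for 48 hours at five concentrations. GI50 = concentration required for 50% inhibition of growth. TGI: total growth inhibition.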

Test systems include M19-MEL melanoma; LXFL 529 NSCLC; HOP-18 NSCLC; XF 498 CNS; KM20L2 colon.
Assay in all cases: NCI anticancer screen, dose series, 48 h

For the molecule `CCOC(=O)c1cc2c3c(c(O)c(OC)c2s1)N(C(=O)c1cc2c4c(c(O)c(OC)c2s1)N(C(C)=O)CC4)CC3`, the TGI with M19-MEL melanoma is greater than 100 µM; in the experiment with LXFL 529 NSCLC it was greater than 100 µM; with HOP-18 NSCLC, greater than 100 µM; in the experiment with XF 498 CNS, 67.8 µM; in the experiment on KM20L2 colon, greater than 100 µM.
For `Cn1c2c(c3ccccc31)CCN(CCN1CCN(c3cccc(Cl)c3)CC1)C2=O`, the TGI was greater than 100 µM in the experiment on M19-MEL melanoma; greater than 100 µM in the experiment with LXFL 529 NSCLC; greater than 100 µM in the experiment on HOP-18 NSCLC; 34.5 µM in the experiment on XF 498 CNS; greater than 100 µM in the experiment with KM20L2 colon.
As for `CSC(=S)N/N=C/c1nccc2ccccc12`, the TGI in the experiment on M19-MEL melanoma was greater than 33.6 µM; in the experiment with LXFL 529 NSCLC it was 24.6 µM; in the experiment with HOP-18 NSCLC it was 9.78 µM; with XF 498 CNS, 16.4 µM; with KM20L2 colon, greater than 27.6 µM.
As for `CC(C)(Oc1ccc(/C=C/C(=O)c2ccc(Cl)cc2)cc1)C(=O)Nc1c(Cl)cccc1Cl`, the TGI was 27.1 µM with M19-MEL melanoma; 53.9 µM with LXFL 529 NSCLC; greater than 100 µM in the experiment on HOP-18 NSCLC; 37.7 µM in the experiment with XF 498 CNS; 46.1 µM with KM20L2 colon.
In the same order, the values of `O=[N+]([O-])c1ccc(-c2ccc(-c3csc(Nc4ccccc4)n3)o2)cc1` are greater than 81.6 µM, 32.9 µM, 29.4 µM, 32.4 µM and 44.9 µM.
With `O=[N+]([O-])c1ccc(Sc2c3ccccc3nc3cc(Cl)ccc23)cc1`, the GI50 in the experiment on M19-MEL melanoma, in the experiment with LXFL 529 NSCLC, in the experiment with HOP-18 NSCLC and in the experiment with KM20L2 colon was greater than 100 µM throughout. The TGI in the experiment with M19-MEL melanoma was greater than 100 µM; with LXFL 529 NSCLC, greater than 100 µM; in the experiment with HOP-18 NSCLC, greater than 100 µM; in the experiment on XF 498 CNS it was 99.6 µM; in the experiment with KM20L2 colon, greater than 100 µM.
On to `COc1ccc2[nH]c3c(c2c1)[C@H](C)C[C@@H]1C(=O)N(c2ccccc2)C(=O)[C@H]31`, for which the TGI in the experiment on M19-MEL melanoma is greater than 100 µM; in the experiment on LXFL 529 NSCLC it was greater than 100 µM; with HOP-18 NSCLC it was 46.3 µM; with XF 498 CNS, 74.1 µM; in the experiment with KM20L2 colon, greater than 100 µM.
With `CN(C)C(=S)/N=c1\ssc(=S)n1Cc1ccncc1`, the TGI in the experiment with M19-MEL melanoma is 27.8 µM; in the experiment on LXFL 529 NSCLC it was 82.1 µM; in the experiment on HOP-18 NSCLC it was 57.6 µM; in the experiment on XF 498 CNS it was 24.9 µM; in the experiment with KM20L2 colon it was greater than 100 µM.
As to `CCOC(=O)NC(=O)c1cn(CCN2CCN(C(=O)CCCCCCCCCCC(=O)N3CCN(CCn4cc(C(=O)NC(=O)OCC)c(=O)[nH]c4=O)CC3)CC2)c(=O)[nH]c1=O`, the TGI with M19-MEL melanoma, in the experiment with LXFL 529 NSCLC, in the experiment with HOP-18 NSCLC and in the experiment with XF 498 CNS was greater than 100 µM throughout.
As to `C=CC(OCC)(OCC)OCC`, the TGI in the experiment with M19-MEL melanoma, with LXFL 529 NSCLC, in the experiment on HOP-18 NSCLC, in the experiment on XF 498 CNS and with KM20L2 colon was greater than 100 µM in each case.
Regarding `CC(=O)N1CCC2(c3ccccc3N(C(C)=O)C2c2ccc(O)cc2)C1C(=O)O` (configuration not stated), the TGI in the experiment with M19-MEL melanoma, in the experiment on LXFL 529 NSCLC, in the experiment on HOP-18 NSCLC, with XF 498 CNS and in the experiment with KM20L2 colon was greater than 100 µM in each case.
With `Cc1nc(C(N)=S)sc1C(=O)/C=C/c1c(O)ccc2ccccc12`, the TGI with M19-MEL melanoma was 19 µM; in the experiment on LXFL 529 NSCLC, greater than 100 µM; in the experiment on HOP-18 NSCLC, greater than 100 µM; in the experiment on XF 498 CNS, greater than 100 µM; in the experiment on KM20L2 colon, greater than 100 µM.
In the case of `C/C(=N/NC(=O)C[N+](C)(C)C)C(CN(C)C)C(=O)Nc1ccccc1` (configuration not stated), the TGI in the experiment on M19-MEL melanoma, in the experiment on LXFL 529 NSCLC, in the experiment with HOP-18 NSCLC, in the experiment on XF 498 CNS and in the experiment with KM20L2 colon was greater than 100 µM each time.
Consider `O=c1oc2ccccc2[n+]([O-])c1-c1ccccc1`, for which the TGI in the experiment on M19-MEL melanoma, in the experiment with LXFL 529 NSCLC, with HOP-18 NSCLC, in the experiment with XF 498 CNS and with KM20L2 colon was greater than 100 µM in each case.
For the molecule `O=C(/C=C/c1ccccc1)c1ccc(NCc2nc3ccccc3[nH]2)cc1`, the TGI is 14.7 µM in the experiment on M19-MEL melanoma; 10.8 µM in the experiment with LXFL 529 NSCLC; 17.6 µM with HOP-18 NSCLC; 20.5 µM in the experiment with XF 498 CNS; 9.06 µM in the experiment with KM20L2 colon.
Consider `CCCCN(CC)CC(C(C)=O)c1c(O)c2ccccc2oc1=O` (configuration not stated), for which the TGI with M19-MEL melanoma, in the experiment on LXFL 529 NSCLC, with HOP-18 NSCLC, in the experiment with XF 498 CNS and in the experiment with KM20L2 colon was greater than 100 µM in each case.
Regarding `CSC1=Nc2ccccc2N=C(c2ccc(Cl)cc2)C1`, the TGI in the experiment with M19-MEL melanoma, in the experiment with LXFL 529 NSCLC, in the experiment with HOP-18 NSCLC, with XF 498 CNS and in the experiment with KM20L2 colon was greater than 100 µM throughout.
As for `Cc1c2ccccc2cc2ccc3oc([N+](=O)[O-])cc3c12`, the TGI in the experiment on M19-MEL melanoma is greater than 100 µM; in the experiment on LXFL 529 NSCLC it was greater than 100 µM; in the experiment on HOP-18 NSCLC, 62.8 µM; in the experiment with XF 498 CNS it was greater than 100 µM; in the experiment on KM20L2 colon, greater than 100 µM.
Consider `Cc1c(C(=O)O)oc2ccc([N+](=O)[O-])cc12`, for which the TGI in the experiment on M19-MEL melanoma, in the experiment with LXFL 529 NSCLC, in the experiment with HOP-18 NSCLC, with XF 498 CNS and in the experiment with KM20L2 colon was greater than 100 µM each time.
Consider `COc1cc2c(cc1OC)C(C(=O)c1cccc(OC)c1OC)C(=O)N(C)CC2` (configuration not stated), for which the TGI in the experiment with M19-MEL melanoma, in the experiment with LXFL 529 NSCLC, with HOP-18 NSCLC, with XF 498 CNS and in the experiment with KM20L2 colon was greater than 100 µM throughout.
Take `COc1ccc(/C(=N\NC(=S)NN)C(c2ccc(OC)cc2)C2C(=O)Oc3ccccc32)cc1` (configuration not stated): the GI50 in the experiment with M19-MEL melanoma, with HOP-18 NSCLC, in the experiment with XF 498 CNS and in the experiment with KM20L2 colon was greater than 100 µM in each case. In addition, the TGI in the experiment on M19-MEL melanoma, in the experiment with LXFL 529 NSCLC, in the experiment on HOP-18 NSCLC, in the experiment on XF 498 CNS and in the experiment on KM20L2 colon was greater than 100 µM throughout.
